In ChEMBL document CHEMBL1139784, “Design and evaluation of a potential mutagen for Hepatitis C virus” (Bioorg Med Chem Lett, 2007):
pEC50: −log10 of the molar value.

Tested on: Hepatitis C virus
Assay: Antiviral activity against HCV by viral replicon assay
Assay type: functional, organism-based, Hepacivirus hominis

Compound `CC(C)(C)C(=O)SCCOP(=O)(OCCSC(=O)C(C)(C)C)OC[C@H]1O[C@@H](n2cc3cc[nH]c3nc2=O)[C@H](O)[C@@H]1O` has a pEC50 of 4.22.
